Publication PMC8350397, “GSK137, a potent small-molecule BCL6 inhibitor with in vivo activity, suppresses antibody responses in mice” (The Journal of Biological Chemistry, 2021)

Key:
mouse BCL6 and SMRT = molecular target: T1, mouse BCL6 and SMRT (Mus musculus, UniProt P41183, C67R/C84N/C8Q); experiment: BCL6 TR-FRET assay, mouse BCL6 and SMRT; assay type: binding
T1 construct: BCL6-Flag-6H-Avi (5-129) C8Q, C67R, C84N proteins; Flag (C); 6H (His6) (C); made in house; host or cells: E. coli
Method: (§1) Human, mouse and rat BCL6-Flag-6H-Avi (5-129) C8Q, C67R, C84N proteins were expressed in E. coli according to standard procedures and purified on Ni-NTA, followed by ion exchange on a Source 30Q column and size exclusion on an Superdex 200 column in a buffer of 20 mM Tris, 250 mM NaCl, 5 mM DTT, 5% glycerol, pH 8.5. All protein purities were estimated to be >90% by SDS-PAGE and the expected masses were confirmed by MS analysis. For TR-FRET assay protein was enzymatically biotinylated by treatment of protein at 100 µM with a 2 fold molar excess of biotin in the presence of 2 mM ATP and 1 µM BirA enzyme in a buffer of 50 mM bicine pH 8.3, 10 mM MgCl2 at 30 °C for 1 hour, followed by extensivedialysis against 50 mM Tris-Cl pH 8.0, 100 mM NaCl, 1 mM DTT using a 3.5 kDa cut-off membrane. Biotinylation was confirmed by MS analysis and concentration was determined by Bradford assay, after which protein was stored in aliquots at -80 °C.
(§2) Acceptor-labelled SMRT peptide H2N-[…](D2)-OH was dissolved in water by mass to give a 500 µM stock solution which was stored at -20 °C. Acceptor-labelled NCOR peptide H2N-[…](Alexa Fluor 647)-OH and acceptor-labelled BCOR peptide H2N-[…](Alexa Fluor 647)-OH were dissolved to a nominal concentration of 1 mM in DMSO, and stock solution concentration was determined by absorbance at 650 nm using an extinction coefficient of 270,000 M-1cm^-1. […]

[1] = molecular target: T2, human BCL6 BTB-POZ domain (BCL6 co-repressor peptide) (Homo sapiens, UniProt P41182, C67R/C84N/C8Q); experiment: BCL6 TR-FRET assay, BCOR peptide displacement; assay type: binding; conditions: read-out: pIC50 Human TR-FRET BCL6 co-repressor (converted)
T2 construct: BCL6-Flag-6H-Avi (5-129) C8Q, C67R, C84N proteins; Flag (C); 6H (His6) (C); made in house; host or cells: E. coli
Method: as §1, §2

Cc1ncccc1[C@H]1C[C@@H](c2cccc3nc(N)ccc23)Nc2c(F)cnn21 [GSK137, 5-((5S,7R)-3-Fluoro-7-(2-methylpyridin-3-yl)-4,5,6,7-tetrahydropyrazolo[1,5-a]pyrimidin-5-yl)quinolin-2-amine]
pIC50 Mouse TR-FRET SMRT (mouse BCL6 and SMRT): 7.8 | IC50 [1]: 25.1 nM
